Source: patent US20250206732A1, “COMPOUNDS AND METHODS FOR THE TARGETED DEGRADATION OF KRAS” (Arvinas Operations, Inc., priority 2022, published 2025)

Target: T1, AsPC-1 HiBiT-KRASG12D (Homo sapiens, UniProt P01116, G12D)
T1 construct: insert the HiBiT tag onto the N-terminus of one or more of the endogenous KRAS alleles; endogenous in cells; host or cells: AsPC-1 (ATCC CRL-1682), CRISPR-Cas9 knock-in clone, one tagged allele
Assay: HiBiT degradation assay (G12D), AsPC-1 HiBiT-KRASG12D cells
Type: cell-based
Settings: 24 hours treatment; for Dmax: ASPC1, AsPC-1 HiBiT-KRASG12D cells; for DC50: HiBiT luminescence
Source text: Reagents. […] SW1573 cells are homozygous for the G12C mutation in KRAS, AsPC-1 cells are homozygous for the G12D mutation, and SW620 cells are homozygous for the G12V mutation. […] For degradation assays, 384 well plates were used. Alamar blue was purchased from ThermoFisher scientific (A50101) and used according to manufacturer instructions. The Nano-Glo® HiBiT Lytic Detection System and Nano-Glo® HiBiT Blotting System were purchased from Promega (#N3050 and #N2410) and used according to manufacturer instructions.
To create the AsPC-1 HiBiT-KRASG12D cell line, CRISPR-Cas9 was used to insert the HiBiT tag onto the N-terminus of one or more of the endogenous KRAS alleles. […] After knock-in of the tag, individual clones were isolated by single cell dilution and screened for HiBiT insertion by PCR. […] This clone was used in further studies.
HiBiT degradation assays (G12C and G12D). […] All assays were performed in triplicate. Cells were treated with compounds for 24 hours at 37° C. in an incubator containing 5% CO2. Following treatment, alamar blue was used to determine if any compounds led to a loss in cell viability after 24 hours. The 10× alamar blue reagent was added to a final concentration of 1× as recommended by the manufacturer and cells were returned to the incubator for 4 hours. Plates were then allowed to equilibrate to room temperature and fluorescence was measured using a Perkin-Elmer EnVision. After completion of the fluorescence read, the liquid from each well was removed and the cells were washed with PBS. The Nano-Glo® HiBiT detection reagent was prepared according to the manufacturer's instructions and added to each well after the PBS wash was removed. Following incubation at room temperature for 45 minutes, the luminescence was read using the ultra-sensitive luminescence aperture on the Envision instrument.
Data analysis. Fluorescence values from the alamar blue treatment were normalized to the DMSO-only control for each compound titration.

T1 sequence (P01116 1-188 isoform P01116-2 G12D): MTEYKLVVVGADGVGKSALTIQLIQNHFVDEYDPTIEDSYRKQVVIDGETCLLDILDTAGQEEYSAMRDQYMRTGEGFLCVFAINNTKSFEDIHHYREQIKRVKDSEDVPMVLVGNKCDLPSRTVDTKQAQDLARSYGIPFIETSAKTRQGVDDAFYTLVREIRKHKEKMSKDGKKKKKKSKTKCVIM

| SMILES | Dmax (maximum degradation observed) [%] | DC50 (AsPC-1 HiBiT-KRASG12D cells) [nM] | AsPC-1 HiBiT-KRASG12D DMax (AsPC-1 HiBiT-KRASG12D cells, maximum degradation observed) |
| --- | --- | --- | --- |
| C#Cc1c(F)ccc2cc(O)cc(-c3ncc4c(N5CC6CCC(C5)N6)nc(OCCN5CCC(OC6CN(c7cc([C@@H](C(=O)N8C[C@H](O)C[C@H]8C(=O)N[C@@H](C)c8ccc(-c9scnc9C)cc8)C(C)C)on7)C6)CC5)nc4c3F)c12 [Compound 158] | 80 to 100 | < 600 |  |
| CCc1cccc2cc(O)cc(-c3ncc4c(N5CC6CCC(C5)N6)nc(OC[C@@]56CCCN5[C@H](CN5CCC(COc7cc([C@H](C(=O)N8C[C@H](O)C[C@H]8C(=O)N[C@@H](C)c8ccc(-c9scnc9C)cc8)C(C)C)on7)CC5)CC6)nc4c3F)c12 [Compound 96, (2S,4R)-1-[(2R)-2-{3-[(1-{[(3S,7aS)-7a-{[(4-{3,8-diazabicyclo[3.2.1]octan-3-yl}-7-(8-ethyl-3-hydroxynaphthalen-1-yl)-8-fluoropyrido[4,3-d]pyrimidin-2-yl)oxy]methyl}-hexahydro-1H-pyrrolizin-3-yl]methyl}piperidin-4-yl)methoxy]-1,2-oxazol-5-yl}-3-methylbutanoyl]-4-hydroxy-N-[(1S)-1-[4-(4-methyl-1,3-thiazol-5-yl)phenyl]ethyl]pyrrolidine-2-carboxamide] | 80 to 100 | < 600 |  |
| CCc1cccc2cc(O)cc(-c3ncc4c(N5CCCCCC5)nc(OC[C@]56CCCN5[C@H](COC(=O)N5CCN(c7cc([C@H](C(=O)N8C[C@H](O)C[C@H]8C(=O)N[C@@H](C)c8ccc(-c9scnc9C)cc8)C(C)C)on7)CC5)CC6)nc4c3F)c12 (relative stereo) [Compound 278, [(3S,8R)-8-[[4-(azepan-1-yl)-7-(8-ethyl-3-hydroxy-1-naphthyl)-8-fluoro-pyrido[4,3-d]pyrimidin-2-yl]oxymethyl]-1,2,3,5,6,7-hexahydropyrrolizin-3-yl]methyl4-[5-[(1R)-1-[(2S,4R)-4-hydroxy-2-[[(1S)-1-[4-(4-methylthiazol-5-yl)phenyl]ethyl]carbamoyl]pyrrolidine-1-carbonyl]-2-methyl-propyl]isoxazol-3-yl]piperazine-1-carboxylate] | 80 to 100 | < 600 |  |
| CCc1cccc2cccc(-c3ncc4c(N5CC6CCC(C5)N6C(=O)OC(C)(C)C)nc(OC[C@]56CCCN5[C@H](COC(=O)N5CCN(c7cc([C@H](C(=O)N8C[C@H](O)C[C@H]8C(=O)N[C@@H](C)c8ccc(-c9scnc9C)cc8)C(C)C)on7)[C@H](C)C5)CC6)nc4c3F)c12 [Compound 226, tert-butyl 3-[7-(8-ethyl-1-naphthyl)-8-fluoro-2-[[(3S,8R)-3-[[(3R)-4-[5-[(1R)-1-[(2S,4R)-4-hydroxy-2-[[(1S)-1-[4-(4-methylthiazol-5-yl)phenyl]ethyl]carbamoyl]pyrrolidine-1-carbonyl]-2-methyl-propyl]isoxazol-3-yl]-3-methyl-piperazine-1-carbonyl]oxymethyl]-1,2,3,5,6,7-hexahydropyrrolizin-8-yl]methoxy]pyrido[4,3-d]pyrimidin-4-yl]-3,8-diazabicyclo[3.2.1]octane-8-carboxylate] |  | < 600 | A (80% < A ≤ 100%) |
| C#Cc1c(F)ccc2cc(O)cc(-c3ncc4c(N5CC6CCC(C5)N6)nc(OCCN5CCC6(CC5)CN(c5cc([C@@H](C(=O)N7C[C@H](O)C[C@H]7C(=O)N[C@@H](C)c7ccc(-c8ccnn8C)cc7)C(C)C)on5)C6)nc4c3F)c12 (relative stereo) [Compound 84, (2S,4R)-1-[(2R*)-2-[3-(7-{2-[(4-{3,8-diazabicyclo[3.2.1]octan-3-yl}-7-(8-ethynyl-7-fluoro-3-hydroxynaphthalen-1-yl)-8-fluoropyrido[4,3-d]pyrimidin-2-yl)oxy]ethyl}-2,7-diazaspiro[3.5]nonan-2-yl)-1,2-oxazol-5-yl]-3-methylbutanoyl]-4-hydroxy-N-[(1S)-1-[4-(1-methyl-1H-pyrazol-5-yl)phenyl]ethyl]pyrrolidine-2-carboxamide] | 60 to 80 | 1000 to 3000 |  |
| C#Cc1c(F)ccc2cc(O)cc(-c3ncc4c(N5CC6CCC(C5)N6)nc(OCCN5CCC(CC6(F)CCN(CC(=O)N[C@H](C(=O)N7C[C@H](O)C[C@H]7C(=O)N[C@@H](C)c7ccc(-c8scnc8C)cc7)C(C)(C)C)CC6)CC5)nc4c3F)c12 [Compound 157, (2S,4R)-1-[(2S)-2-(2-{4-[(1-{2-[(4-{3,8-diazabicyclo[3.2.1]octan-3-yl}-7-(8-ethynyl-7-fluoro-3-hydroxynaphthalen-1-yl)-8-fluoropyrido[4,3-d]pyrimidin-2-yl)oxy]ethyl}piperidin-4-yl)methyl]-4-fluoropiperidin-1-yl}acetamido)-3,3-dimethylbutanoyl]-4-hydroxy-N-[(1S)-1-[4-(4-methyl-1,3-thiazol-5-yl)phenyl]ethyl]pyrrolidine-2-carboxamide] | 80 to 100 | < 600 |  |
| CCc1cccc2cc(O)cc(-c3ncc4c(N5CC6CCC(C5)N6)nc(OC[C@@]56CCCN5[C@H](COC(=O)N5CCN(c7cc([C@H](C(=O)N8C[C@H](O)C[C@H]8C(=O)N[C@@H](C)c8ccc(-c9scnc9C)cc8)C(C)C)on7)C[C@@H]5C)CC6)nc4c3F)c12 [Compound 325, [(3S,8S)-8-[[4-(3,8-diazabicyclo[3.2.1]octan-3-yl)-7-(8-ethyl-3-hydroxy-1-naphthyl)-8-fluoro-pyrido[4,3-d]pyrimidin-2-yl]oxymethyl]-1,2,3,5,6,7-hexahydropyrrolizin-3-yl]methyl (2S)-4-[5-[(1R)-1-[(2S,4R)-4-hydroxy-2-[[(1S)-1-[4-(4-methylthiazol-5-yl)phenyl]ethyl]carbamoyl]pyrrolidine-1-carbonyl]-isobutyl]isoxazol-3-yl]-2-methyl-piperazine-1-carboxylate] | 80 to 100 | < 600 |  |
| CCc1cccc2cc(O)cc(-c3ncc4c(N5CC6CCC(C5)N6)nc(OCCN5CCC(C)(COc6cc([C@H](C(=O)N7C[C@H](O)C[C@H]7C(=O)N[C@@H](C)c7ccc(-c8scnc8C)cc7)C(C)C)on6)CC5)nc4c3F)c12 [Compound 32, (2S,4R)-1-[(2R)-2-{3-[(1-{2-[(4-{3,8-diazabicyclo[3.2.1]octan-3-yl}-7-(8-ethyl-3-hydroxynaphthalen-1-yl)-8-fluoropyrido[4,3-d]pyrimidin-2-yl)oxy]ethyl}-4-methylpiperidin-4-yl)methoxy]-1,2-oxazol-5-yl}-3-methylbutanoyl]-4-hydroxy-N-[(1S)-1-[4-(4-methyl-1,3-thiazol-5-yl)phenyl]ethyl]pyrrolidine-2-carboxamide] | 80 to 100 | < 600 |  |
| Cc1ncsc1-c1ccc([C@H](C)NC(=O)[C@@H]2C[C@@H](O)CN2C(=O)[C@@H](c2cc(N3CCN(C(=O)OC[C@@H]4CC[C@@]5(COc6nc(N7CC8CCC(C7)N8)c7cnc(-c8cccc9ccc(F)c(F)c89)c(F)c7n6)CCCN45)CC3)no2)C(C)C)cc1 (relative stereo) [Compound 269, ((3S,7aR)-7a-(((4-((1R,5S)-3,8-diazabicyclo[3.2.1]octan-3-yl)-7-(7,8-difluoronaphthalen-1-yl)-8-fluoropyrido[4,3-d]pyrimidin-2-yl)oxy)methyl)hexahydro-1H-pyrrolizin-3-yl)methyl 4-(5-((R)-1-((2S,4R)-4-hydroxy-2-(((S)-1-(4-(4-methylthiazol-5-yl)phenyl)ethyl)carbamoyl)pyrrolidin-1-yl)-3-methyl-1-oxobutan-2-yl)isoxazol-3-yl) piperazine-1-carboxylate] | 60 to 80 | < 600 |  |
| CCc1cccc2cc(O)cc(-c3ncc4c(N5CC6CCC(C5)N6)nc(OC[C@]56CCCN5[C@@H](COc5cc([C@H](C(=O)N7C[C@H](O)C[C@H]7C(=O)N[C@@H](C)c7ccc(-c8scnc8C)cc7)C(C)C)on5)CC6)nc4c3F)c12 [Compound 27, (2S,4R)-1-[(2R)-2-(3-{[(3R,7aR)-7a-{[(4-{3,8-diazabicyclo[3.2.1]octan-3-yl}-7-(8-ethyl-3-hydroxynaphthalen-1-yl)-8-fluoropyrido[4,3-d]pyrimidin-2-yl)oxy]methyl}-hexahydro-1H-pyrrolizin-3-yl]methoxy}-1,2-oxazol-5-yl)-3-methylbutanoyl]-4-hydroxy-N-[(1S)-1-[4-(4-methyl-1,3-thiazol-5-yl)phenyl]ethyl]pyrrolidine-2-carboxamide] |  | < 600 |  |
| CCc1cccc2cc(O)cc(-c3ncc4c(N5CC6CCC(C5)N6)nc(OCCN5CCC(C)(COc6cc([C@@H](C(=O)N7C[C@H](O)C[C@H]7C(=O)N[C@@H](C)c7ccc(-c8scnc8C)cc7)C(C)C)on6)CC5)nc4c3F)c12 [Compound 31, (2S,4R)-1-[(2S)-2-{3-[(1-{2-[(4-{3,8-diazabicyclo[3.2.1]octan-3-yl}-7-(8-ethyl-3-hydroxynaphthalen-1-yl)-8-fluoropyrido[4,3-d]pyrimidin-2-yl)oxy]ethyl}-4-methylpiperidin-4-yl)methoxy]-1,2-oxazol-5-yl}-3-methylbutanoyl]-4-hydroxy-N-[(1S)-1-[4-(4-methyl-1,3-thiazol-5-yl)phenyl]ethyl]pyrrolidine-2-carboxamide] |  | > 3000 |  |
